Some test systems named below: OVCAR-5; IGROV-1; NCI-H460; SF-268; HOP-92; UACC-257; M14; UACC-62; HOP-62; OVCAR-3; KM12; T47D; HCT-116; SK-MEL-28; OVCAR-8; SK-MEL-5; ACHN; K562; Malme-3M; MDA-N.
Holding throughout (test): inhibition of tumour cell growth, NCI panel, 48 h

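Five concentrations, 48 hours, 96-well plates. GI50 marks 50% less growth.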 Activity calls are given as the source filed them. No stated cut-off is given here; in the data, active = GI50 up to about 1.1 µM and inactive = higher.

As for `COc1ccc2c(c1)CCN=C2c1ccccc1CCCCl`, the GI50 in the assay with OVCAR-5 was 46.8 µM (inactive); in the assay on IGROV-1 it was 20.1 µM (inactive); in the assay with NCI-H460, 13.6 µM (inactive); in the assay on SF-268, 22.2 µM (inactive); with HOP-92, 26.7 µM (inactive); in the assay on UACC-257, 23.7 µM (inactive). Besides, the GI50 was 29.3 µM (inactive) in the assay on M14; 36.1 µM (inactive) in the assay with UACC-62; 28.6 µM (inactive) in the assay with HOP-62; 46.1 µM (inactive) in the assay with OVCAR-3; 14.9 µM (inactive) in the assay with KM12; 10.8 µM (inactive) in the assay on T47D. For the same compound, the GI50 in the assay on HCT-116 was 18.2 µM (inactive); with SK-MEL-28 it was > 100 µM (inactive); in the assay on OVCAR-8, 16.8 µM (inactive); in the assay with SK-MEL-5, 4.99 µM (inactive); in the assay with ACHN, 24.3 µM (inactive); in the assay on K562, 5.62 µM (inactive).

`COc1ccc(C2=C(Cl)C(=O)N(c3ccc(OC)cc3OC)C(=O)C2(Cl)Cl)cc1`: the GI50 with OVCAR-5 is 14.4 µM (inactive); in the assay on IGROV-1, 18.5 µM (inactive); with NCI-H460 it was 45.2 µM (inactive); in the assay on SF-268, 18.1 µM (inactive); in the assay on HOP-92, 9.77 µM (inactive); in the assay on UACC-257 it was 17.8 µM (inactive). For the same compound, the GI50 is 14.6 µM (inactive) with M14; 14.5 µM (inactive) in the assay on UACC-62; 18.5 µM (inactive) in the assay on HOP-62; 12.5 µM (inactive) in the assay with OVCAR-3; 17.1 µM (inactive) in the assay with KM12; 11.8 µM (inactive) in the assay on T47D. The GI50 in the assay on HCT-116 was 15.5 µM (inactive); in the assay with SK-MEL-28, 17 µM (inactive); in the assay on Malme-3M it was 14.6 µM (inactive); in the assay on OVCAR-8, 19.5 µM (inactive); in the assay with SK-MEL-5 it was 14.9 µM (inactive); in the assay with ACHN, 15.7 µM (inactive). The GI50 with K562 is 19.8 µM (inactive).

In the case of `C[C@H](N)C(=O)Nc1ccc(-c2nc3ccccc3s2)cc1Cl`, the GI50 in the assay on OVCAR-5 was 0.27 µM (active); with IGROV-1, 0.165 µM (active); in the assay on NCI-H460, 0.916 µM (active); with SF-268, 17.9 µM (inactive); with HOP-92 it was 33.1 µM (inactive); with UACC-257, 18.6 µM (inactive). The GI50 in the assay on M14 is 5.78 µM (inactive); with UACC-62 it was 16.4 µM (inactive); in the assay on HOP-62, 12.3 µM (inactive); in the assay with OVCAR-3, 0.153 µM (active); in the assay with KM12, 15 µM (inactive); in the assay with HCT-116 it was 11.6 µM (inactive). Also, the GI50 was 14 µM (inactive) in the assay with SK-MEL-28; 13.2 µM (inactive) in the assay on MDA-N; 22.1 µM (inactive) in the assay with Malme-3M; 26 µM (inactive) with OVCAR-8; 16.1 µM (inactive) in the assay with SK-MEL-5; 15.4 µM (inactive) in the assay on ACHN. The GI50 with K562 is 17.1 µM (inactive).

`C=C(C)[C@@]1(OC(=O)c2cc([N+](=O)[O-])cc([N+](=O)[O-])c2)C[C@@H]2CCCC[C@@H]21`: the GI50 in the assay with OVCAR-5 is > 100 µM (inactive); in the assay with IGROV-1, > 100 µM (inactive); with NCI-H460, 46.9 µM (inactive); with SF-268 it was > 100 µM (inactive); in the assay on UACC-257, > 100 µM (inactive); with M14, 53.6 µM (inactive). Besides, the GI50 in the assay with UACC-62 was > 100 µM (inactive); with HOP-62, 62.4 µM (inactive); with KM12, > 100 µM (inactive); in the assay on T47D, > 100 µM (inactive); with HCT-116, > 100 µM (inactive); in the assay with SK-MEL-28, > 100 µM (inactive). For the same compound, the GI50 in the assay with MDA-N was > 100 µM (inactive); with Malme-3M, 34.2 µM (inactive); with OVCAR-8, > 100 µM (inactive); with SK-MEL-5, > 10 µM (inactive); in the assay with ACHN, > 100 µM (inactive); in the assay on K562 it was > 100 µM (inactive).

Regarding `COc1cccc(N2C(=O)/C(=C\c3ccccc3)SC2c2cc(OC)c(OC)c(OC)c2)c1` (stereo not drawn), the GI50 is > 100 µM (inactive) in the assay on OVCAR-5; 31.3 µM (inactive) with IGROV-1; 41.4 µM (inactive) in the assay with SF-268; 27.7 µM (inactive) with HOP-92; > 100 µM (inactive) with UACC-257; 40.3 µM (inactive) in the assay with M14. The GI50 in the assay on UACC-62 is 24.1 µM (inactive); in the assay with HOP-62 it was 37.6 µM (inactive); in the assay with KM12, 36.5 µM (inactive); in the assay with T47D, 17.4 µM (inactive); with HCT-116, 30.1 µM (inactive); in the assay on SK-MEL-28, 96.2 µM (inactive). Also, the GI50 in the assay on MDA-N is 17.6 µM (inactive); in the assay on OVCAR-8, 44.1 µM (inactive); in the assay with SK-MEL-5, 42.9 µM (inactive); with ACHN it was > 100 µM (inactive); in the assay on K562, 26.9 µM (inactive).

Consider `N#Cc1cc2c(n(C3OC(CO)C(O)C(O)C3O)c1=S)CCCCC2` (stereo not drawn), for which the GI50 in the assay with OVCAR-5, in the assay on IGROV-1, in the assay with NCI-H460, with SF-268, in the assay on HOP-92 and with UACC-257 was > 100 µM (inactive) in each case. The GI50 in the assay on M14, in the assay on UACC-62, in the assay on HOP-62, in the assay with OVCAR-3, in the assay with KM12 and in the assay with HCT-116 was > 100 µM (inactive) each time. Further, the GI50 with SK-MEL-28, with MDA-N, in the assay with Malme-3M, in the assay with OVCAR-8, with SK-MEL-5 and in the assay with ACHN was > 100 µM (inactive) in each case. The GI50 in the assay on K562 is > 100 µM (inactive).

`COc1ccc2c(=O)c3c([nH]c2c1)OCC3=O`: the GI50 in the assay with IGROV-1, with NCI-H460, with SF-268, with HOP-92, with UACC-257 and in the assay on M14 was > 100 µM (inactive) each time. Besides, the GI50 in the assay on UACC-62, in the assay with HOP-62, in the assay with KM12, in the assay on T47D, with HCT-116 and in the assay on SK-MEL-28 was > 100 µM (inactive) throughout. Also, the GI50 with OVCAR-8 is > 100 µM (inactive); with SK-MEL-5, > 100 µM (inactive); in the assay with ACHN, > 100 µM (inactive); in the assay on K562 it was 36.5 µM (inactive).

As for `CCOC(=O)[C@@H]1ON2O[C@H](OC3CCCC3(c3ccccc3)c3ccccc3)C[C@H]3OC(=O)[C@@H]1C32` (stereo partly drawn), the GI50 with OVCAR-5 was > 100 µM (inactive); in the assay on IGROV-1, 33.7 µM (inactive); in the assay with NCI-H460, 34 µM (inactive); in the assay on SF-268 it was 95.9 µM (inactive); in the assay with HOP-92, 95.7 µM (inactive); in the assay with UACC-257 it was 52.4 µM (inactive). Besides, the GI50 with M14 was 45.3 µM (inactive); in the assay with UACC-62, 27 µM (inactive); in the assay with HOP-62 it was > 100 µM (inactive); in the assay with OVCAR-3, 40.9 µM (inactive); in the assay on KM12 it was 27.9 µM (inactive); with T47D it was 26.1 µM (inactive). Besides, the GI50 in the assay with HCT-116 was 73.3 µM (inactive); in the assay on MDA-N, 43.3 µM (inactive); with OVCAR-8, 35.3 µM (inactive); with SK-MEL-5 it was 75.9 µM (inactive); in the assay on ACHN, 65.5 µM (inactive); with K562 it was 41.2 µM (inactive).

Turning to `Cc1ccc(OC2CC(n3cnc4c(=O)[nH]c(Br)nc43)OC2Oc2ccc(C)cc2)cc1` (stereo not drawn), the GI50 in the assay with OVCAR-5 was 21.4 µM (inactive); in the assay with IGROV-1 it was 24.4 µM (inactive); with NCI-H460, 20.6 µM (inactive); with SF-268 it was 22.6 µM (inactive); with HOP-92, 22.4 µM (inactive); with UACC-257, 25 µM (inactive). The GI50 in the assay with M14 is 24.9 µM (inactive); in the assay on UACC-62, 23.7 µM (inactive); in the assay on HOP-62 it was 24.1 µM (inactive); in the assay with OVCAR-3, 18.5 µM (inactive); with KM12 it was 29 µM (inactive); in the assay with T47D, 24.8 µM (inactive). The GI50 was 29.2 µM (inactive) with HCT-116; 22.9 µM (inactive) with Malme-3M; 25.3 µM (inactive) in the assay on OVCAR-8; 22.4 µM (inactive) in the assay with SK-MEL-5; 19.8 µM (inactive) in the assay with ACHN; 17.1 µM (inactive) with K562.

For `C/C(=N\Nc1nc2cc(F)ccc2s1)c1ccccn1`, the GI50 with OVCAR-5 was 0.716 µM (active); in the assay on IGROV-1, 0.0198 µM (active); in the assay on NCI-H460 it was 0.0412 µM (active); in the assay on SF-268, 0.0301 µM (active); in the assay with HOP-92, 0.0352 µM (active); in the assay on UACC-257, < 0.0182 µM (active). In addition, the GI50 was 0.0171 µM (active) with M14; 0.123 µM (active) with UACC-62; 0.381 µM (active) in the assay on HOP-62; 0.0284 µM (active) in the assay on OVCAR-3; 0.165 µM (active) in the assay with KM12; < 0.01 µM (active) in the assay on T47D. For the same compound, the GI50 was < 0.0161 µM (active) with HCT-116; 0.294 µM (active) in the assay with SK-MEL-28; < 0.01 µM (active) in the assay with Malme-3M; 0.0194 µM (active) in the assay on OVCAR-8; 0.053 µM (active) in the assay with SK-MEL-5; < 0.01 µM (active) with ACHN. Further, the GI50 with K562 is < 0.0147 µM (active).

In the case of `c1ccc([P+](CCNCCNCC[P+](c2ccccc2)(c2ccccc2)c2ccccc2)(c2ccccc2)c2ccccc2)cc1`, the GI50 in the assay with OVCAR-5, in the assay with IGROV-1, in the assay with NCI-H460, in the assay with SF-268, in the assay on UACC-257 and with M14 was > 100 µM (inactive) throughout. For the same compound, the GI50 in the assay with UACC-62, in the assay on HOP-62, in the assay with OVCAR-3, with KM12, in the assay on T47D and in the assay with HCT-116 was > 100 µM (inactive) throughout. In addition, the GI50 in the assay with SK-MEL-28, with MDA-N, in the assay on OVCAR-8, in the assay with SK-MEL-5 and with ACHN was > 100 µM (inactive) throughout.

(Values after ChEMBL document CHEMBL1201862, “PubChem BioAssay data set” (2004).)
